Experimental data as given in the NIST ThermoML archive (doi:10.1016/j.tca.2018.08.017).
“And” between values parts separate entries of the source, which are not always exact repeats. Identical values can stand only once. ± gives the expanded uncertainty stated by the source.

Conditions: 101.33 kPa, Liquid

CCCCCCCCCCCCCCCCCC [octadecane]
viscosity
Conditions | Concentric cylinders viscometry | Cone and plate viscometry
299.75 K | – | 3.95 ± 0.19 mPa·s
299.95 K | – | 3.92 ± 0.19 mPa·s
300.05 K | – | 4.21 ± 0.85 mPa·s
300.15 K | – | 3.91 ± 0.19 mPa·s and 4.12 ± 0.52 mPa·s
300.35 K | – | 3.89 ± 0.19 mPa·s and 4.09 ± 0.52 mPa·s
300.55 K | – | 3.86 ± 0.19 mPa·s
300.65 K | – | 4.06 ± 0.51 mPa·s and 4.17 ± 0.84 mPa·s
300.75 K | – | 3.84 ± 0.19 mPa·s
300.85 K | – | 3.84 ± 0.18 mPa·s and 4.04 ± 0.51 mPa·s
300.95 K | – | 3.82 ± 0.18 mPa·s
300.96 K | 4.095 ± 0.22 mPa·s | –
301.15 K | – | 3.81 ± 0.18 mPa·s and 4.02 ± 0.51 mPa·s and 4.13 ± 0.83 mPa·s
301.29 K | 4.068 ± 0.22 mPa·s [middle of 4 runs] | –
301.35 K | – | 3.8 ± 0.18 mPa·s and 4 ± 0.5 mPa·s
301.36 K | 4.052 ± 0.22 mPa·s | –
301.55 K | – | 3.8 ± 0.18 mPa·s
301.65 K | – | 3.98 ± 0.5 mPa·s and 4.09 ± 0.82 mPa·s
301.75 K | – | 3.76 ± 0.18 mPa·s and 3.74 ± 0.36 mPa·s
301.76 K | 4.011 ± 0.22 mPa·s | –
301.84 K | 4.009 ± 0.22 mPa·s | –
301.85 K | – | 3.96 ± 0.5 mPa·s
301.95 K | – | 3.77 ± 0.18 mPa·s
302.05 K | – | 3.71 ± 0.35 mPa·s
302.15 K | – | 3.76 ± 0.18 mPa·s and 3.93 ± 0.49 mPa·s and 4.04 ± 0.81 mPa·s
302.18 K | 3.967 ± 0.21 mPa·s | –
302.35 K | – | 3.72 ± 0.18 mPa·s and 3.91 ± 0.49 mPa·s
302.45 K | – | 3.69 ± 0.35 mPa·s
302.55 K | – | 3.73 ± 0.18 mPa·s
302.58 K | 3.927 ± 0.21 mPa·s | –
302.64 K | 3.926 ± 0.21 mPa·s | –
302.65 K | – | 3.88 ± 0.49 mPa·s and 4.01 ± 0.81 mPa·s
302.75 K | – | 3.71 ± 0.18 mPa·s
302.85 K | – | 3.85 ± 0.49 mPa·s and 3.66 ± 0.35 mPa·s
302.95 K | – | 3.69 ± 0.18 mPa·s
302.96 K | 3.884 ± 0.21 mPa·s | –
303.15 K | – | 3.72 ± 0.18 mPa·s [middle of 6 runs]
303.35 K | – | 3.67 ± 0.18 mPa·s and 3.81 ± 0.48 mPa·s
303.38 K | 3.837 ± 0.21 mPa·s [middle of 5 runs] | –
303.4 K | 3.838 ± 0.21 mPa·s | –
303.42 K | 3.846 ± 0.21 mPa·s | –
303.55 K | – | 3.63 ± 0.17 mPa·s and 3.61 ± 0.34 mPa·s
303.65 K | – | 3.78 ± 0.48 mPa·s and 3.93 ± 0.79 mPa·s
303.75 K | – | 3.64 ± 0.18 mPa·s
303.81 K | 3.799 ± 0.21 mPa·s | –
303.85 K | – | 3.77 ± 0.47 mPa·s and 3.59 ± 0.34 mPa·s
303.95 K | – | 3.65 ± 0.18 mPa·s
304.15 K | – | 3.6 ± 0.17 mPa·s and 3.75 ± 0.47 mPa·s and 3.89 ± 0.78 mPa·s
304.19 K | 3.769 ± 0.2 mPa·s | –
304.21 K | 3.762 ± 0.2 mPa·s | –
304.25 K | – | 3.56 ± 0.34 mPa·s
304.35 K | – | 3.58 ± 0.17 mPa·s and 3.73 ± 0.47 mPa·s
304.55 K | – | 3.57 ± 0.17 mPa·s and 3.53 ± 0.34 mPa·s
304.58 K | 3.727 ± 0.2 mPa·s | –
304.65 K | – | 3.7 ± 0.47 mPa·s and 3.85 ± 0.77 mPa·s
304.75 K | – | 3.56 ± 0.17 mPa·s
304.85 K | – | 3.69 ± 0.47 mPa·s
304.92 K | 3.694 ± 0.2 mPa·s | –
304.95 K | – | 3.53 ± 0.17 mPa·s and 3.51 ± 0.33 mPa·s
305.08 K | 3.678 ± 0.2 mPa·s | –
305.15 K | – | 3.55 ± 0.17 mPa·s and 3.67 ± 0.46 mPa·s and 3.81 ± 0.76 mPa·s
305.25 K | – | 3.48 ± 0.33 mPa·s
305.35 K | – | 3.5 ± 0.17 mPa·s and 3.64 ± 0.46 mPa·s
305.46 K | 3.642 ± 0.2 mPa·s | –
305.55 K | – | 3.5 ± 0.17 mPa·s
305.65 K | – | 3.62 ± 0.46 mPa·s and 3.47 ± 0.33 mPa·s and 3.77 ± 0.76 mPa·s
305.7 K | 3.624 ± 0.2 mPa·s | –
305.75 K | – | 3.48 ± 0.17 mPa·s
305.84 K | 3.606 ± 0.2 mPa·s | –
305.85 K | – | 3.6 ± 0.45 mPa·s
305.95 K | – | 3.46 ± 0.17 mPa·s
306.05 K | – | 3.43 ± 0.33 mPa·s
306.15 K | – | 3.47 ± 0.17 mPa·s and 3.58 ± 0.45 mPa·s and 3.72 ± 0.75 mPa·s
306.23 K | 3.571 ± 0.19 mPa·s | –
306.35 K | – | 3.47 ± 0.17 mPa·s and 3.56 ± 0.45 mPa·s and 3.42 ± 0.33 mPa·s
306.42 K | 3.556 ± 0.19 mPa·s | –
306.55 K | – | 3.44 ± 0.17 mPa·s
306.61 K | 3.538 ± 0.19 mPa·s | –
306.65 K | – | 3.54 ± 0.45 mPa·s and 3.69 ± 0.74 mPa·s
306.75 K | – | 3.42 ± 0.17 mPa·s and 3.39 ± 0.32 mPa·s
306.85 K | – | 3.52 ± 0.44 mPa·s
306.95 K | – | 3.43 ± 0.17 mPa·s
306.98 K | 3.502 ± 0.19 mPa·s | –
307.05 K | – | 3.36 ± 0.32 mPa·s
307.15 K | – | 3.42 ± 0.17 mPa·s and 3.5 ± 0.44 mPa·s and 3.66 ± 0.73 mPa·s
307.3 K | 3.478 ± 0.19 mPa·s | –
307.35 K | – | 3.4 ± 0.16 mPa·s and 3.49 ± 0.44 mPa·s
307.37 K | 3.469 ± 0.19 mPa·s | –
307.45 K | – | 3.35 ± 0.32 mPa·s
307.55 K | – | 3.39 ± 0.16 mPa·s
307.65 K | – | 3.47 ± 0.44 mPa·s and 3.62 ± 0.73 mPa·s
307.72 K | 3.438 ± 0.19 mPa·s | –
307.75 K | – | 3.38 ± 0.16 mPa·s and 3.32 ± 0.32 mPa·s
307.84 K | 3.426 ± 0.19 mPa·s and 3.427 ± 0.19 mPa·s | –
307.85 K | 3.426 ± 0.19 mPa·s | 3.45 ± 0.43 mPa·s
307.87 K | 3.426 ± 0.19 mPa·s | –
307.93 K | 3.424 ± 0.19 mPa·s | –
307.95 K | – | 3.35 ± 0.16 mPa·s
308.07 K | 3.413 ± 0.18 mPa·s | –
308.11 K | 3.404 ± 0.18 mPa·s | –
308.15 K | – | 3.35 ± 0.16 mPa·s [middle of 6 runs]
308.35 K | – | 3.31 ± 0.16 mPa·s and 3.42 ± 0.43 mPa·s
308.55 K | – | 3.29 ± 0.16 mPa·s and 3.28 ± 0.31 mPa·s
308.59 K | 3.363 ± 0.18 mPa·s | –
308.65 K | – | 3.39 ± 0.43 mPa·s and 3.53 ± 0.71 mPa·s
308.75 K | – | 3.29 ± 0.16 mPa·s
308.83 K | 3.349 ± 0.18 mPa·s | –
308.85 K | – | 3.37 ± 0.42 mPa·s and 3.26 ± 0.31 mPa·s
308.95 K | – | 3.29 ± 0.16 mPa·s
308.96 K | 3.333 ± 0.18 mPa·s | –
309.15 K | – | 3.27 ± 0.16 mPa·s and 3.36 ± 0.42 mPa·s and 3.49 ± 0.7 mPa·s
309.25 K | – | 3.25 ± 0.31 mPa·s
309.3 K | 3.306 ± 0.18 mPa·s | –
309.35 K | – | 3.26 ± 0.16 mPa·s and 3.34 ± 0.42 mPa·s
309.55 K | – | 3.28 ± 0.16 mPa·s and 3.22 ± 0.31 mPa·s
309.58 K | 3.286 ± 0.18 mPa·s | –
309.65 K | – | 3.32 ± 0.42 mPa·s and 3.45 ± 0.69 mPa·s
